Assay results reported in the supplement of paper PMC10307832.

How the values were obtained:
Assay in all cases: relative viability (nuclei count vs DMSO), 5 days (fraction); higher = more cells survive
ABC-1 = test system: ABC-1
How it was run: (§1)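 Medians of duplicate plates are given as relative viability. That measure is the nuclei count in treated wells divided by the count in vehicle wells. Counts were taken on 4× images of lung cancer cell lines in 1536-well plates, 5 days after pin-tool dosing the day after seeding with one drug alone or a fixed anchor-drug dose plus five library-drug doses (not always all listed) in √10 steps.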

NCI-H1651 = test system: NCI-H1651
How it was run: as §1

NCI-H3122 = test system: NCI-H3122
How it was run: as §1

ChaGo-K-1 = test system: ChaGo-K-1
How it was run: as §1

HCC-78 = test system: HCC-78
How it was run: as §1

NCI-H460 = test system: NCI-H460
How it was run: as §1

NCI-H1395 = test system: NCI-H1395
How it was run: as §1

NCI-H2087 = test system: NCI-H2087
How it was run: as §1

PC-3 [JPC-3] = test system: PC-3 [JPC-3]
How it was run: as §1

NCI-H2405 = test system: NCI-H2405
How it was run: as §1

NCI-H1755 = test system: NCI-H1755
How it was run: as §1

HCC-366 = test system: HCC-366
How it was run: as §1

NCI-H1734 = test system: NCI-H1734
How it was run: as §1

LOU-NH91 = test system: LOU-NH91
How it was run: as §1

NCI-H1944 = test system: NCI-H1944
How it was run: as §1

NCI-H2170 = test system: NCI-H2170
How it was run: as §1

NCI-H1793 = test system: NCI-H1793
How it was run: as §1

LC-2-ad = test system: LC-2-ad
How it was run: as §1

LU99A = test system: LU99A
How it was run: as §1

CAL-12T = test system: CAL-12T
How it was run: as §1

RERF-LC-KJ = test system: RERF-LC-KJ
How it was run: as §1

NCI-H2228 = test system: NCI-H2228
How it was run: as §1

UMC-11 = test system: UMC-11
How it was run: as §1

O=C(O)c1ccc(-c2c[nH]c3ncc(-c4ccccc4)cc23)cc1C1CCCC1 + Cc1cc(Nc2cc(N3CCN(C)CC3)nc(Sc3ccc(NC(=O)C4CC4)cc3)n2)n[nH]1 [Tozasertib] (partner 0.1 µM)
relative viability (ABC-1; first compound 0.04 µM): 0.2
relative viability (ABC-1; first compound 0.1265 µM): 0.192
relative viability (ABC-1; first compound 0.4 µM): 0.147
relative viability (ABC-1; first compound 1.265 µM): 0.18
relative viability (NCI-H1651; first compound 0.04 µM): 0.689
relative viability (NCI-H1651; first compound 0.1265 µM): 0.708
relative viability (NCI-H1651; first compound 0.4 µM): 0.559
relative viability (NCI-H1651; first compound 1.265 µM): 0.481
relative viability (NCI-H3122; first compound 0.04 µM): 0.568
relative viability (NCI-H3122; first compound 0.1265 µM): 0.45
relative viability (NCI-H3122; first compound 0.4 µM): 0.407
relative viability (NCI-H3122; first compound 1.265 µM): 0.326
relative viability (ChaGo-K-1; first compound 0.04 µM): 0.213
relative viability (ChaGo-K-1; first compound 0.1265 µM): 0.225
relative viability (ChaGo-K-1; first compound 0.4 µM): 0.242
relative viability (ChaGo-K-1; first compound 1.265 µM): 0.215
relative viability (HCC-78; first compound 0.1265 µM): 0.468
relative viability (HCC-78; first compound 0.4 µM): 0.405
relative viability (HCC-78; first compound 1.265 µM): 0.345
relative viability (NCI-H460; first compound 0.04 µM): 0.413
relative viability (NCI-H460; first compound 0.1265 µM): 0.384
relative viability (NCI-H460; first compound 0.4 µM): 0.491
relative viability (NCI-H460; first compound 1.265 µM): 0.306
relative viability (NCI-H1395; first compound 0.04 µM): 0.818
relative viability (NCI-H1395; first compound 0.1265 µM): 0.793
relative viability (NCI-H1395; first compound 0.4 µM): 0.676
relative viability (NCI-H1395; first compound 1.265 µM): 0.604
relative viability (NCI-H2087; first compound 0.04 µM): 0.248
relative viability (NCI-H2087; first compound 0.1265 µM): 0.29
relative viability (NCI-H2087; first compound 0.4 µM): 0.227
relative viability (NCI-H2087; first compound 1.265 µM): 0.186
relative viability (PC-3 [JPC-3]; first compound 0.04 µM): 0.926
relative viability (PC-3 [JPC-3]; first compound 0.1265 µM): 0.881
relative viability (PC-3 [JPC-3]; first compound 0.4 µM): 0.766
relative viability (PC-3 [JPC-3]; first compound 1.265 µM): 0.65
relative viability (NCI-H2405; first compound 0.04 µM): 0.725
relative viability (NCI-H2405; first compound 0.1265 µM): 0.806
relative viability (NCI-H2405; first compound 0.4 µM): 0.648
relative viability (NCI-H2405; first compound 1.265 µM): 0.583
relative viability (NCI-H1755; first compound 0.04 µM): 0.609
relative viability (NCI-H1755; first compound 0.1265 µM): 0.628
relative viability (NCI-H1755; first compound 0.4 µM): 0.514
relative viability (NCI-H1755; first compound 1.265 µM): 0.509
relative viability (HCC-366; first compound 0.04 µM): 0.128
relative viability (HCC-366; first compound 0.1265 µM): 0.163
relative viability (HCC-366; first compound 0.4 µM): 0.0869
relative viability (HCC-366; first compound 1.265 µM): 0.0888
relative viability (NCI-H1734; first compound 0.04 µM): 0.284
relative viability (NCI-H1734; first compound 0.1265 µM): 0.236
relative viability (NCI-H1734; first compound 0.4 µM): 0.247
relative viability (NCI-H1734; first compound 1.265 µM): 0.258
relative viability (LOU-NH91; first compound 0.04 µM): 0.584
relative viability (LOU-NH91; first compound 0.1265 µM): 0.688
relative viability (LOU-NH91; first compound 0.4 µM): 0.616
relative viability (LOU-NH91; first compound 1.265 µM): 0.526
relative viability (NCI-H1944; first compound 0.04 µM): 0.231
relative viability (NCI-H1944; first compound 0.1265 µM): 0.259
relative viability (NCI-H1944; first compound 0.4 µM): 0.233
relative viability (NCI-H1944; first compound 1.265 µM): 0.249
relative viability (NCI-H2170; first compound 0.04 µM): 0.721
relative viability (NCI-H2170; first compound 0.1265 µM): 0.726
relative viability (NCI-H2170; first compound 0.4 µM): 0.679
relative viability (NCI-H2170; first compound 1.265 µM): 0.612
relative viability (NCI-H1793; first compound 0.04 µM): 0.345
relative viability (NCI-H1793; first compound 0.1265 µM): 0.323
relative viability (NCI-H1793; first compound 0.4 µM): 0.513
relative viability (NCI-H1793; first compound 1.265 µM): 0.266
relative viability (LC-2-ad; first compound 0.04 µM): 0.482
relative viability (LC-2-ad; first compound 0.1265 µM): 0.407
relative viability (LC-2-ad; first compound 0.4 µM): 0.399
relative viability (LC-2-ad; first compound 1.265 µM): 0.402
relative viability (LU99A; first compound 0.04 µM): 0.268
relative viability (LU99A; first compound 0.1265 µM): 0.253
relative viability (LU99A; first compound 0.4 µM): 0.281
relative viability (LU99A; first compound 1.265 µM): 0.257
relative viability (CAL-12T; first compound 0.04 µM): 0.314
relative viability (CAL-12T; first compound 0.1265 µM): 0.374
relative viability (CAL-12T; first compound 0.4 µM): 0.315
relative viability (CAL-12T; first compound 1.265 µM): 0.337
relative viability (RERF-LC-KJ; first compound 0.04 µM): 0.531
relative viability (RERF-LC-KJ; first compound 0.1265 µM): 0.422
relative viability (RERF-LC-KJ; first compound 0.4 µM): 0.407
relative viability (RERF-LC-KJ; first compound 1.265 µM): 0.275
relative viability (NCI-H2228; first compound 0.04 µM): 0.244
relative viability (NCI-H2228; first compound 0.1265 µM): 0.272
relative viability (NCI-H2228; first compound 0.4 µM): 0.218
relative viability (NCI-H2228; first compound 1.265 µM): 0.186
relative viability (UMC-11; first compound 0.04 µM): 0.189
relative viability (UMC-11; first compound 0.1265 µM): 0.197
relative viability (UMC-11; first compound 0.4 µM): 0.199
relative viability (UMC-11; first compound 1.265 µM): 0.191
